ChEMBL document CHEMBL1131315, “Synthesis and anticonvulsant activity of 2(3H)-benzoxazolone and 2(3H)-benzothiazolone derivatives” (J Med Chem, 1998)
Activity calls are given as the source filed them. No cut-off for these calls is given here.

What was measured:
Mus musculus [1] = test: The compound was tested for anticonvulsant activity in subcutaneous pentylenetetrazole seizure test (sc Met) for 4 hr in mice; activity at 300 mg/kg; format: functional, organism-based; design: dose 300 mg/kg
Mus musculus [2] = test: The compound was tested for anticonvulsant activity in Maximal electroshock seizure test for 4 hr in mice(ip); active at 300 mg/kg; format: functional, organism-based; design: dose 300 mg/kg
[3] = The compound was tested for neurologic toxicity (rotarod) test for 30 min in mice; activity at 100 mg/kg; format: organism-based; design: dose 100 mg/kg; conditions: mouse, in vivo, 0.5 h
Mus musculus [4] = test: Anticonvulsant activity in Maximal electroshock seizure test at 100 mg/kg i.p. in mice.; format: functional, organism-based; design: dose 100 mg/kg
Mus musculus [5] = test: The compound was tested for anticonvulsant activity in subcutaneous pentylenetetrazole seizure test (sc Met) for 30 min in mice; activity at 300 mg/kg; format: functional, organism-based; design: dose 300 mg/kg
[6] = The compound was tested for neurologic toxicity (rotarod) test for 4 hr in mice; no activity or toxicity at 300 mg/kg; format: organism-based; design: dose 300 mg/kg; conditions: mouse, in vivo
Mus musculus [7] = test: Time of peak effect in mice following i.p. administration.; format: functional
Mus musculus [8] = test: The compound was tested for anticonvulsant activity in Maximal electroshock seizure test for 30 min in mice(ip); active at 30 mg/kg; format: functional, organism-based; design: dose 30 mg/kg
Rattus norvegicus [9] = test: The compound was tested peroral dose of 30 mg/kg for 4 hours for maximal electroshock test on rats; MES= 1/4; format: functional; conditions: route oral
Rattus norvegicus [10] = test: The compound was tested peroral dose of 30 mg/kg for 1 hour for maximal electroshock test on rats; MES= 1/4; format: functional; conditions: route oral
Mus musculus [11] = test: Anticonvulsant activity in subcutaneous pentylenetetrazole seizure test for 30 min in mice; No activity/toxicity at 300 mg/kg.; format: functional, organism-based; design: dose 300 mg/kg
Mus musculus [12] = test: The anticonvulsant activity in subcutaneous pentylenetetrazole seizure test (sc Met) for 4 hr in mice; no activity or no toxicity at 300 mg/kg; format: functional, organism-based; design: dose 300 mg/kg
Mus musculus [13] = test: The compound was tested for anticonvulsant activity in Maximal electroshock seizure test (MES) for 4 hr in mice(ip); no activity or toxicity at 300 mg/kg; format: functional, organism-based; design: dose 300 mg/kg
[14] = target: Sigma non-opioid intracellular receptor 1 (Homo sapiens) (UniProt Q99720); test: Ratio between the Ki(nM)values of sigma-2 and sigma-1; format: functional
Sigma non-opioid intracellular receptor 1 (Homo sapiens), sequence (Q99720 whole entry): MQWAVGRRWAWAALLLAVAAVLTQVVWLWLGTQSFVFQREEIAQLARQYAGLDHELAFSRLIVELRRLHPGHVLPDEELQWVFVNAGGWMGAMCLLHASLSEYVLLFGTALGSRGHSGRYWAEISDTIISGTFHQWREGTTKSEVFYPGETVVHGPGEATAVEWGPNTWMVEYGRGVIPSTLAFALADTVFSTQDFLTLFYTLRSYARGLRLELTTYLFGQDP

Rattus norvegicus [15] = test: The compound was tested for the effective oral dose to inhibit 50% of the anticonvulsant in rats.(Value in parenthesis indicate 95% confidence limits); format: functional
Rattus norvegicus [16] = test: The compound was tested peroral dose of 30 mg/kg for 0.25 hours for maximal electroshock test on rats; MES= 3/4; format: functional; conditions: route oral
Mus musculus [17] = test: The compound was determined for the dose (mg/kg) by rotarod test at the time of peak neurotoxic effect in mice on ip administration.; format: functional
Rattus norvegicus [18] = test: The compound was tested for the toxic dose on oral administration.; format: functional
Rattus norvegicus [19] = test: The compound was tested peroral dose of 30 mg/kg for 2 hours for rotarod toxicity; 0/4; format: functional; conditions: route oral
Mus musculus [20] = test: Inhibition of s.c. pentylenetetrazole induced seizure in mice following i.p. administration.; format: functional
[21] = The compound was tested for neurologic toxicity (rotarod) test for 4 hours in mice; no activity or no toxicity at 300 mg/kg; format: organism-based; design: dose 300 mg/kg; conditions: mouse, in vivo
[22] = The compound was tested for time of peak effect (TPE) in hours for its toxicity in mice on ip administration.; format: organism-based; conditions: mouse, in vivo
[23] = The compound was tested for neurologic toxicity (rotarod) test for 30 min in mice; active at 300 mg/kg; format: organism-based; design: dose 300 mg/kg; conditions: mouse, in vivo, 0.5 h
Mus musculus [24] = test: The compound was tested to inhibit 50% of induced maximal electroshock seizure in mice on ip administration.; format: functional
Rattus norvegicus [25] = test: The compound was tested peroral dose of 30 mg/kg for 0.5 hours for rotarod toxicity; 0/4; format: functional; conditions: route oral
Rattus norvegicus [26] = test: The compound was tested peroral dose of 30 mg/kg for 0.5 hours for maximal electroshock test on rats; MES= 3/4; format: functional; conditions: route oral
Rattus norvegicus [27] = test: The compound was tested peroral dose of 30 mg/kg for 2 hours for maximal electroshock test on rats; MES= 0/4; format: functional; conditions: route oral
Rattus norvegicus [28] = organism: Rattus norvegicus; test: Protective index value is the ratio between ED50 and TD50; format: functional
Rattus norvegicus [29] = test: The compound was tested peroral dose of 30 mg/kg for 0.25 hours for rotarod toxicity; 0/4; format: functional; conditions: route oral
Sigma 2 receptor = test: Affinity on sigma 2 receptor using [3H]- DTG as radioligand
Rattus norvegicus [30] = test: The compound was tested peroral dose of 30 mg/kg for 4 hours for rotarod toxicity; 0/4; format: functional; conditions: route oral
Rattus norvegicus [31] = test: The compound was tested peroral dose of 30 mg/kg for 1 hour for rotarod toxicity; 0/4; format: functional; conditions: route oral

## CCCCC(=O)c1ccc2c(c1)sc(=O)n2C(C)=O
Mus musculus [1]
  scMet: activity at 300 mg/kg
Mus musculus [2]
  MES: active at 300 mg/kg
[3]
  Rotarod toxicity: activity at 100 mg/kg
Mus musculus [4]
  MES: active at 300 mg/kg
Mus musculus [5]
  scMet: activity at 300 mg/kg
[6]
  Rotarod toxicity: activity at 100 mg/kg

## CCCc1ccc2c(c1)sc(=O)n2CCN1CCCCC1
Mus musculus [7]
  Activity: 0.25 h
Mus musculus [8]
  MES: active at 30 mg/kg
Rattus norvegicus [9]
  Protected/Tested: 1
Rattus norvegicus [10]
  Protected/Tested: 1
Mus musculus [11]
  scMet: No activity or no toxicity at 300 mg/kg
Mus musculus [12]
  scMet: No activity or no toxicity at 300 mg/kg
Mus musculus [13]
  MES: active at 30 mg/kg
[14]
  Ratio: 29
Rattus norvegicus [15]
  ED50: 18.6 mg/kg
Rattus norvegicus [16]
  Protected/Tested: 3
Mus musculus [17]
  TD50: 29.4 mg/kg
Rattus norvegicus [18]
  TD50: < 500 mg/kg
Rattus norvegicus [19]
  No. of animals exhibiting toxicity / Number of animals tested: 0
Mus musculus [20]
  ED50: > 75 mg/kg
[21]
  Rotarod toxicity: active at 300 mg/kg
[22]
  Toxicity: 0.25 h
[23]
  Rotarod toxicity: active at 300 mg/kg
Mus musculus [24]
  ED50: 7.6 mg/kg
Rattus norvegicus [25]
  No. of animals exhibiting toxicity / Number of animals tested: 0
Rattus norvegicus [26]
  Protected/Tested: 3
Rattus norvegicus [27]
  Protected/Tested: 0
Rattus norvegicus [28]
  PI: 26.9
Rattus norvegicus [29]
  No. of animals exhibiting toxicity / Number of animals tested: 0
Sigma 2 receptor
  Ki: 18.1 nM
Rattus norvegicus [30]
  No. of animals exhibiting toxicity / Number of animals tested: 0
Rattus norvegicus [31]
  No. of animals exhibiting toxicity / Number of animals tested: 0
